From US10987359B2, “Oxadiazepinone derivatives and methods of treating hepatitis B infections” (priority 2016, dated 2021) come the findings set out here.

Where only a bound is given, the exact number is not on record here.

Broadly, the EC50 is the midpoint of the concentration-response curve.

For this assay, the system named is HBV. Put plainly: HBV replication inhibition assay (BDNA assay) in HepG2.2.15 cells. The class given is cell-based. To be noted: Hepatitis B virus, HepG2.2.15, HBV replication assay (BDNA assay), HepG2.2.15 cells; read-out: DNA EC50. An outline of the steps:
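Supernatant encapsidated HBV DNA was measured by bDNA after DNase digestion and proteinase K release. Stably HBV-integrated HepG2.2.15 cells had two 3-day compound exposures (0.5% DMSO). Signals were background-subtracted and normalized to DMSO wells, and EC50 was obtained by four-parameter fit.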

With `CCCN1CCn2nc3c(c2C(=O)N1C)CN(C(=O)Nc1ccc(F)c(C#N)c1)[C@H](C)C3` [Compound 219, (R)—N-(3-cyano-4-fluorophenyl)-2,9-dimethyl-1-oxo-3-propyl-1,2,3,4,5,8,9,11-octahydro-10H-pyrido[4′,3′:3,4]pyrazolo[5,1-d][1,2,5]triazepine-10-carboxamide], the EC50 was 1 to 100 nM.
Take `C[C@@H]1Cc2nn3c(c2CN1C(=O)Nc1ccc(F)c(C#N)c1)C(=O)N(C)N(CCO)CC3` [Compound 220, (R)—N-(3-Cyano-4-fluorophenyl)-3-(2-hydroxyethyl)-2,9-dimethyl-1-oxo-1,2,3,4,5,8,9,11-octahydro-10H-pyrido[4′,3′:3,4]pyrazolo[5,1-d][1,2,5]triazepine-10-carboxamide]: the EC50 lay within 100 to 500 nM.
As to `C[C@@H]1Cc2nn3c(c2CN1C(=O)Nc1ccc(F)c(C#N)c1)C(=O)N(C)N(CC(F)F)CC3` [Compound 221, (R)—N-(3-Cyano-4-fluorophenyl)-3-(2,2-difluoroethyl)-2,9-dimethyl-1-oxo-1,2,3,4,5,8,9,11-octahydro-10H-pyrido[4′,3′:3,4]pyrazolo[5,1-d][1,2,5]triazepine-10-carboxamide], the EC50 lay within 1 to 100 nM.
For the compound `C[C@@H]1Cc2nn3c(c2CN1C(=O)Nc1ccc(F)c(C#N)c1)C(=O)N(C)N(CCCO)CC3` [Compound 222, (R)—N-(3-Cyano-4-fluorophenyl)-3-(3-hydroxypropyl)-2,9-dimethyl-1-oxo-1,2,3,4,5,8,9,11-octahydro-10H-pyrido[4′,3′:3,4]pyrazolo[5,1-d][1,2,5]triazepine-10-carboxamide], the EC50 fell in the range of 100 to 500 nM.
The figure for `CC(O)CN1CCn2nc3c(c2C(=O)N1C)CN(C(=O)Nc1ccc(F)c(C#N)c1)[C@H](C)C3` (stereo partly drawn) [Compound 223, (9R)—N-(3-Cyano-4-fluorophenyl)-3-(2-hydroxypropyl)-2,9-dimethyl-1-oxo-1,2,3,4,5,8,9,11-octahydro-10H-pyrido[4′,3′:3,4]pyrazolo[5,1-d][1,2,5]triazepine-10-carboxamide] is 100 to 500 nM.
Consider `C[C@@H]1Cc2nn3c(c2CN1C(=O)Nc1ccc(F)c(C#N)c1)C(=O)N(C)N(C)CC3` [Compound 224, (R)-N-(3-cyano-4-fluorophenyl)-2,3,9-trimethyl-1-oxo-1,2,3,4,5,8,9,11-octahydro-10H-pyrido[4′,3′:3,4]pyrazolo[5,1-d][1,2,5]triazepine-10-carboxamide], for which the EC50 was 1 to 100 nM.
In the case of `C[C@@H]1Cc2nn3c(c2CN1C(=O)Nc1ccc(F)c(C(F)(F)F)c1)C(=O)N(C)N(C)CC3` [Compound 225, (R)-N-(4-fluoro-3-(trifluoromethyl)phenyl)-2,3,9-trimethyl-1-oxo-1,2,3,4,5,8,9,11-octahydro-10H-pyrido[4′,3′:3,4]pyrazolo[5,1-d][1,2,5]triazepine-10-carboxamide], the EC50 is 1 to 100 nM.
Regarding `CN1NC(O)(C(F)(F)F)Cn2nc3c(c2C1=O)CN(C(=O)Nc1ccc(F)c(Cl)c1)CC3` (stereo not drawn) [Compound 226, N-(3-chloro-4-fluorophenyl)-4-hydroxy-2-methyl-1-oxo-4-(trifluoromethyl)-1,2,3,4,5,8,9,11-octahydro-10H-pyrido[4′,3′:3,4]pyrazolo[5,1-d][1,2,5]triazepine-10-carboxamide], the EC50 was greater than 1000 nM.
For `CN1N=C(CO)Cn2nc3c(c2C1=O)CN(C(=O)Nc1ccc(F)c(Cl)c1)CC3` [Compound 227, N-(3-chloro-4-fluorophenyl)-4-(hydroxymethyl)-2-methyl-1-oxo-1,2,5,8,9,11-hexahydro-10H-pyrido[4′,3′:3,4]pyrazolo[5,1-d][1,2,5]triazepine-10-carboxamide], the EC50 lay within 1 to 100 nM.
Consider `CN1N=C(CO)Cn2nc3c(c2C1=O)CN(C(=O)Nc1ccc(F)c(C#N)c1)CC3` [Compound 228, N-(3-cyano-4-fluorophenyl)-4-(hydroxymethyl)-2-methyl-1-oxo-1,2,5,8,9,11-hexahydro-10H-pyrido[4′,3′:3,4]pyrazolo[5,1-d][1,2,5]triazepine-10-carboxamide], for which the EC50 lay within 1 to 100 nM.
The figure for `CCC(O)C1=NN(C)C(=O)c2c3c(nn2C1)CCN(C(=O)Nc1ccc(F)c(Cl)c1)C3` (stereo not drawn) [Compound 229, N-(3-chloro-4-fluorophenyl)-4-(1-hydroxypropyl)-2-methyl-1-oxo-1,2,5,8,9,11-hexahydro-10H-pyrido[4′,3′:3,4]pyrazolo[5,1-d][1,2,5]triazepine-10-carboxamide] is 100 to 500 nM; for `CC(O)C1=NN(C)C(=O)c2c3c(nn2C1)CCN(C(=O)Nc1ccc(F)c(Cl)c1)C3` (stereo not drawn) [Compound 230, N-(3-chloro-4-fluorophenyl)-4-(1-hydroxyethyl)-2-methyl-1-oxo-1,2,5,8,9,11-hexahydro-10H-pyrido[4′,3′:3,4]pyrazolo[5,1-d][1,2,5]triazepine-10-carboxamide] it is 1 to 100 nM.
With `CN1N=C(C(O)C2CC2)Cn2nc3c(c2C1=O)CN(C(=O)Nc1ccc(F)c(Cl)c1)CC3` (stereo not drawn) [Compound 231, N-(3-chloro-4-fluorophenyl)-4-(cyclopropyl(hydroxy)methyl)-2-methyl-1-oxo-1,2,5,8,9,11-hexahydro-10H-pyrido[4′,3′:3,4]pyrazolo[5,1-d][1,2,5]triazepine-10-carboxamide], the EC50 is 100 to 500 nM.
As to `CC1=NN(C)C(=O)c2c3c(nn2C1)CCN(C(=O)Nc1ccc(F)c(Cl)c1)C3` [Compound 232, N-(3-chloro-4-fluorophenyl)-2,4-dimethyl-1-oxo-1,2,5,8,9,11-hexahydro-10H-pyrido[4′,3′:3,4]pyrazolo[5,1-d][1,2,5]triazepine-10-carboxamide], the EC50 was 1 to 100 nM.
For the compound `C[C@@H]1Cc2nn3c(c2CN1C(=O)Nc1ccc(F)c(C#N)c1)C(=O)N(C)N=C(CO)C3` [Compound 233, (R)-N-(3-cyano-4-fluorophenyl)-4-(hydroxymethyl)-2,9-dimethyl-1-oxo-1,2,5,8,9,11-hexahydro-10H-pyrido[4′,3′:3,4]pyrazolo[5,1-d][1,2,5]triazepine-10-carboxamide], the EC50 was 1 to 100 nM.
Consider `C[C@@H]1Cc2nn3c(c2CN1C(=O)Nc1ccc(F)c(Br)c1)C(=O)N(C)N=C(CO)C3` [Compound 234, (R)-N-(3-bromo-4-fluorophenyl)-4-(hydroxymethyl)-2,9-dimethyl-1-oxo-1,2,5,8,9,11-hexahydro-10H-pyrido[4′,3′:3,4]pyrazolo[5,1-d][1,2,5]triazepine-10-carboxamide], for which the EC50 is 1 to 100 nM.
Turning to `C[C@@H]1Cc2nn3c(c2CN1C(=O)Nc1ccc(F)c(Cl)c1)C(=O)N(C)N=C(CO)C3` [Compound 235, (R)-N-(3-chloro-4-fluorophenyl)-4-(hydroxymethyl)-2,9-dimethyl-1-oxo-1,2,5,8,9,11-hexahydro-10H-pyrido[4′,3′:3,4]pyrazolo[5,1-d][1,2,5]triazepine-10-carboxamide], the EC50 lay in the range of 1 to 100 nM.
For `C[C@@H]1Cc2nn3c(c2CN1C(=O)Nc1ccc(F)c(Br)c1)C(=O)N(C)N=C(COCC(F)F)C3` [Compound 236, (R)-N-(3-bromo-4-fluorophenyl)-4-((2,2-difluoroethoxy)methyl)-2,9-dimethyl-1-oxo-1,2,5,8,9,11-hexahydro-10H-pyrido[4′,3′:3,4]pyrazolo[5,1-d][1,2,5]triazepine-10-carboxamide], the EC50 is 1 to 100 nM.
